These results are taken from patent publication US12569495B2, “Inhibitors of porcine reproductive and respiratory syndrome virus” (UNIVERSITY OF CONNECTICUT, priority 2020, dated 2026).

Assay [1] relates to PRRSV strain VR-2332. The assay is described as follows: PRRSV titration assay of culture media of infected PAMs. The note with it: 15 μM; for log reduction of viral titer: pre- and post-inoculation treatment; for inhibitory function in PRRSV infection assay compared with B7: qRT-PCR and titration (FIG. 7B, 7C). Type of assay: cell-based. As to the method: (§1) For PRRSV infection of PAM cells, PAMs were seeded one day prior to infection. […] Cells were inoculated with VR-2332, SDSU73, NADC30 or Lelystad PRRSV at MOI=0.1 for 1 h. The 24 h cell medium supernatant was stored at −80° C. until use.
For PRRSV titration assay, MARC145 cells were seeded in 48-well plates and grew to ˜80% density before inoculation. Viral supernatants were prepared by 10-fold serial dilution, and 100 μl of the dilutions was added per well in six replicates. Inocula were removed from cells after 2 h and replaced with 0.5 mL of DMEM supplemented with 2% FBS, 2 mM glutamine, 0.1 mM MEM non-essential amino acids, 50 U/mL penicillin, and 50 μg/mL streptomycin (Invitrogen). Cells were cultured at 37° C. for 6 days and any cytopathic effects were observed and recorded. The PRRSV titer was calculated using the Reed and Muench method and expressed as median tissue culture infectious dose (TCID50/mL). Reed and Muench, Am. J. Epidemiol. 27(3): 493-497 (1938).
For orientation: Real-time PCR tracks product formation cycle by cycle.

The target in assay [2] is T1, protein-protein interactions (PPI) between CD163-SRCR5 domain and PRRSV GP2a protein (Sus scrofa, UniProt Q2VL90).
T1 construct: The amplified cDNA fragments of SRCR2 or SRCR5 were subcloned into the pBiFC-VN155(I152L) vector; Myc tag (from vector backbone pMyc-CMV); expressed in transfected cells; host or cells: HEK293T
The assay is described as follows: BiFC assay between SRCR5-VN and GP2a-VC proteins. Type of assay: cell-based, porcine CD163; PRRSV. The note with it: for inhibition of CD163-SRCR5/GP2a PPI in the BiFC assay, B7 analogues: HEK293T cells, DMSO as Ctrl, concentration not given; for inhibitory function in BiFC assay compared with B7: methyl and/or fluoro groups removed from the benzenesulfonamide moiety. The source says: The N-terminus and C-terminus of the truncated Venus-I152L were inserted into vector backbone pMyc-CMV and pCMV-HA, constituting commercial plasmids pBiFC-VN155(I152L) and pBiFC-VC155, respectively (Addgene, Watertown, MA, USA). See Kodama and Hu, Biotechniques 49:793-805 (2010). cDNA fragments for the scavenger receptor cysteine-rich domain 2 (SRCR2) and SRCR5 of porcine CD163 receptor, and for PRRSV glycoproteins GP2a and GP4 were amplified by RT-PCR. The amplified cDNA fragments of SRCR2 or SRCR5 were subcloned into the pBiFC-VN155(I152L) vector digested with EcoRI/BglII. For constructions of GP2a and GP4 fusion proteins, cDNA fragments encoding GP2a or GP4 were subcloned into the pBiFC-VC155 vector digested with EcoRI/BglII. All plasmid clones were verified by DNA Sanger sequencing.
HEK293T cells cultured in 12-well plates were transfected with appropriate plasmids for each BiFC assay using FuGENE® 6 (Promega, Madison, WI, USA). After 5 h, various concentrations of chemical compounds were added to the culture media. DMSO was used as the vehicle control. Fluorescence images of treated cells at 24 h after plasmid transfection were captured using an inverted Nikon fluorescence microscope. Fluorescence intensity of treated cells was measured by ImageJ.
Using the previously described BiFC vector based on the fragmented venus protein (VN-155[I152L], hereafter named VN) and (VC-155, hereafter named VC), fusion protein constructs were established between the porcine CD163 protein SRCR5 or SRCR2 domain and VN, and between the PRRSV minor glycoproteins (GP2a or GP4) and VC (FIG. 1A, 2). See Kodama et al., Biotechniques 49(5): 793-805 (2010). These plasmids were co-expressed in HEK293T cells to evaluate the PPIs between the SRCR5 domain and GP2a or GP4.
The BiFC assays was tested to determine whether it could identify small molecules with potential to block the protein-protein interactions between CD163 and PRRSV. A customized virtual screen of a library of commercially available small molecules was performed with the AtomNet® model at a region centered around R561 (FIG. 3) based on the available 3-D protein structure of porcine CD163-SRCR5 domain, and 74 compounds predicted to target this potential binding site were procured. Ma et al., J. Virol. 91(3): e01897-16 (2017). These compounds were tested using the BiFC assay, to evaluate their ability to inhibit the PPI between GP2a and SRCR5. Plasmids were co-transfected in HEK293T cells, 4 h later, compounds were individually administered to cells at 5 μM. Twenty-four hours later, images were taken under a fluorescence microscope and the fluorescence quantified. […] Until these studies, there has been no known biological activity reported for compound B7.

The subject of assay [3] is PRRSV strain VR-2332. The assay is described as follows: qRT-PCR for PRRSV RNA in infected PAMs. To be noted: 15 μM; VR-2332; 24 h. Type of assay: cell-based. On the procedure: Total RNA was extracted from PAMs infected with PRRSV using RNeasy Mini Kit (Qiagen, Germantown, MD) according to the manufacturer's instruction. RNA concentrations were measured using a Nanodrop spectrophotometer (Thermo Fisher Scientific). GAPDH was used as a housekeeping gene for gene expression normalization. Data were processed with the software associated with ABI 7500.
as §1

T1 sequence (Q2VL90 477-577): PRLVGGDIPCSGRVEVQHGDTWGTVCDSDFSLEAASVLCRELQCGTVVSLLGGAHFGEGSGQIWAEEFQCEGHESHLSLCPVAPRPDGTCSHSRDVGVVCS

For the molecule `Nc1cccc(S(=O)(=O)N2CCOCC2)c1` [Compound B7-A7, 3-(morpholinosulfonyl)aniline], the “inhibition of PRRSV infection of PAMs (titration of culture media), B7 analogues” value in the assay with PRRSV strain VR-2332 [1] (24 h) is given as “none of these 2 compounds inhibited PRRSV infection of PAMs”.

With `Cc1ccc(S(=O)(=O)Nc2nc3ccccc3nc2N2CCOCC2)cc1` [Compound B7-A5, 4-methyl-N-(3-morpholinoquinoxalin-2-yl)benzenesulfonamide], the “inhibition of CD163-SRCR5/GP2a PPI in the BiFC assay, B7 analogues” value (“inhibition … in the BiFC assay, B7 analogues” for short) in assay [2] was “completely blocked their ability to inhibit”. In addition, the “PRRSV RNA level in treated PAMs (qRT-PCR), B7 analogues” value with PRRSV strain VR-2332 [3] is on record as “failed to inhibit PRRSV RNA level”.

In the case of `O=S(=O)(Nc1nc2ccccc2nc1Nc1ccc(Cl)c(S(=O)(=O)N2CCOCC2)c1)c1ccccc1` [Compound B7-A1, N-[3-(4-chloro-3-morpholin-4-ylsulfonylanilino)quinoxalin-2-yl] benzenesulfonamide], the “inhibitory function in BiFC assay compared with B7” value in assay [2] was “weakened the compound's inhibitory function”. In the assay with PRRSV strain VR-2332 [1] (24 h), the “log reduction of viral titer” value was 2.2 log. The “inhibitory function in PRRSV infection assay compared with B7” value with PRRSV strain VR-2332 [1] is “weakened the compound's inhibitory function”.

As to `Cc1ccccc1S(=O)(=O)Nc1nc2ccccc2nc1Nc1ccc(S(=O)(=O)N2CCOCC2)cc1` [Compound B7-A2, 2-methyl-N-[3-(4-morpholin-4-ylsulfonylanilino)quinoxalin-2-yl] benzenesulfonamide], in assay [2], the “inhibition … in the BiFC assay, B7 analogues” value is given as “does not eliminate these compounds' ability to inhibit” and the “inhibitory function in BiFC assay compared with B7” value is given as “weakened the compound's inhibitory function”. Also, the “log reduction of viral titer” value in the assay with PRRSV strain VR-2332 [1] (24 h) came to 2.4 log. In the assay with PRRSV strain VR-2332 [1], the “inhibitory function in PRRSV infection assay compared with B7” value was “weakened the compound's inhibitory function”.

With `O=S(=O)(Nc1nc2ccccc2nc1Nc1cccc(S(=O)(=O)N2CCOCC2)c1)c1ccccc1` [Compound B7-A3, N-[3-(3-morpholin-4-ylsulfonylanilino)quinoxalin-2-yl] benzenesulfonamide], the “inhibitory function in BiFC assay compared with B7” value in assay [2] is “weakened the compound's inhibitory function”. For the same molecule, the “log reduction of viral titer” value in the assay on PRRSV strain VR-2332 [1] (24 h) was 1.2 log. Also, the “inhibitory function in PRRSV infection assay compared with B7” value in the assay on PRRSV strain VR-2332 [1] is on record as “weakened the compound's inhibitory function”.

For `Cc1ccccc1S(=O)(=O)Nc1nc2ccccc2nc1N1CCOCC1` [Compound B7-A6, 2-methyl-N-(3-morpholin-4-ylquinoxalin-2-yl) benzenesulfonamide], the “inhibition … in the BiFC assay, B7 analogues” value in assay [2] is given as “completely blocked their ability to inhibit”.

Regarding `Cc1ccc(S(=O)(=O)Nc2nc3ccccc3nc2Nc2cccc(S(=O)(=O)N3CCCCC3)c2)cc1` [Compound B7-A4, 4-methyl-N-[3-(3-piperidin-1-ylsulfonylanilino)quinoxalin-2-yl] benzenesulfonamide], the “inhibition … in the BiFC assay, B7 analogues” value in assay [2] is given as “does not eliminate these compounds' ability to inhibit”. Besides, in the assay with PRRSV strain VR-2332 [1] (24 h), the “log reduction of viral titer” value is 2.8 log.
